Source: patent US8026218B2, “Bifunctional analgesic compounds for opioid receptor agonists and neurokinin-1 receptor antagonists” (The University of Arizona, priority 2006, dated 2011)
Like-named read-outs stand apart in the source and are kept apart here.

Assays:
[1] = target: T1, human δ opioid receptors (hDOR) (Homo sapiens, UniProt P41143); assay: Radioligand competition binding, [3H]DPDPE, hDOR membranes
T1 construct: expressed in transfected cells; host or cells: HN9.10 neuroblastoma cell line, pCDNA3, neomycin-selected clones
T1 sequence (P41143 whole entry): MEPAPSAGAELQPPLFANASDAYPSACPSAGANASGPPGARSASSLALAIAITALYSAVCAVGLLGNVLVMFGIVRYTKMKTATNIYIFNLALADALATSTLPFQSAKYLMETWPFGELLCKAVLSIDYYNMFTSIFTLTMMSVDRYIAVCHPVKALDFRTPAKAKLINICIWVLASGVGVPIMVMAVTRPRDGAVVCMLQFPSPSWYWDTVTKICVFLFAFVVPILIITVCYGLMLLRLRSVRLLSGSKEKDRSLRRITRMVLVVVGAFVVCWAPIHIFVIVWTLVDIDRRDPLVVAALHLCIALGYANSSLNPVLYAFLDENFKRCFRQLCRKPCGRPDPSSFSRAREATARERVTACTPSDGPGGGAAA

[2] = target: T2, rat μ opioid receptors (rMOR) (Rattus norvegicus, UniProt P33535); assay: Radioligand competition binding, [3H]DAMGO, rMOR membranes
T2 construct: expressed in transfected cells; host or cells: HN9.10 neuroblastoma cell line, pCDNA3, neomycin-selected clones
T2 sequence (P33535 whole entry): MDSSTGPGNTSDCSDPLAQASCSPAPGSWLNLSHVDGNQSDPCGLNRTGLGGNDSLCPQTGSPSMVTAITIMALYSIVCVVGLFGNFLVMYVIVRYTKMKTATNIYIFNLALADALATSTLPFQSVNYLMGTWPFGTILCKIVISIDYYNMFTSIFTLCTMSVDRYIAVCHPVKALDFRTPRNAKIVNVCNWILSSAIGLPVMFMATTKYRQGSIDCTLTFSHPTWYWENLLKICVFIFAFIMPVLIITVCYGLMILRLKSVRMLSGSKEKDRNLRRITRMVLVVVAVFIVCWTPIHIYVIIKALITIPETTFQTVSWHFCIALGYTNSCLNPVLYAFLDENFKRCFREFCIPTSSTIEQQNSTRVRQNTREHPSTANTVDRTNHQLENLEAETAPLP

[3] = target: T3, rat NK1 (rNK1) receptor (Rattus norvegicus, UniProt P14600); assay: Radioligand competition binding, [3H]substance P, rNK1/CHO membranes; details: for IC50: membranes from transfected CHO cells
T3 construct: expressed in transfected cells; host or cells: CHO (rNK-1/CHO cell line from Dr. James Krause)
T3 sequence (P14600 whole entry): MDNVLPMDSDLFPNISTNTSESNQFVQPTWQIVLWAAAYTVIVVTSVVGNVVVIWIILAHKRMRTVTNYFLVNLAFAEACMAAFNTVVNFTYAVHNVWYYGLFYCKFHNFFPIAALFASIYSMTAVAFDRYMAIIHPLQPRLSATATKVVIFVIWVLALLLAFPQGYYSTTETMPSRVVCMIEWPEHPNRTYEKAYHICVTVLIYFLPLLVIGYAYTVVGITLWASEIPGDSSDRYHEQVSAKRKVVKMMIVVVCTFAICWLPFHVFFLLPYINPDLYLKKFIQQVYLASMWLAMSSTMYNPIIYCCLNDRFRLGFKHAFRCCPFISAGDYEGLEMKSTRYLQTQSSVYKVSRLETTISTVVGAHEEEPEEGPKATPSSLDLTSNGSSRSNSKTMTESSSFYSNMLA

[4] = target: T4, human NK1 receptor (hNK1) (Homo sapiens, UniProt P25103); assay: Radioligand competition binding, [3H]-Substance P, hNK1
T4 construct: expressed in transfected cells
T4 sequence (P25103 whole entry): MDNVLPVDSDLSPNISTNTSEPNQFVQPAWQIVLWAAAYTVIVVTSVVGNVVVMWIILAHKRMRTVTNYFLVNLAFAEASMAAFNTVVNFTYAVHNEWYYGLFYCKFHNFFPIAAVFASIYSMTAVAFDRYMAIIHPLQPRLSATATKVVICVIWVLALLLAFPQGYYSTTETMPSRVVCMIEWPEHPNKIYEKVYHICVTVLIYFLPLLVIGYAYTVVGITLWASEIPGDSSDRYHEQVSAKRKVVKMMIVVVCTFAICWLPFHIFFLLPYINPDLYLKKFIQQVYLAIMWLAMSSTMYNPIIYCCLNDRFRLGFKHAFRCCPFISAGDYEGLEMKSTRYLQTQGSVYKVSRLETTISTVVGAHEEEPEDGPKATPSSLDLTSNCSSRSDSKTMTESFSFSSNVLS

[5] = target: T1, human δ opioid receptors (hDOR); assay: [35S]GTP-γ-S binding assay, hDOR; type: biochemical
[6] = target: T2, rat μ opioid receptors (rMOR); assay: biochemical; type: biochemical
[7] = target: T5, δ opioid receptors (MVD) (Mus musculus, UniProt P32300); assay: Mouse isolated vas deferens (MVD) assay, opioid agonist
T5 construct: from tissue; host or cells: mouse (ICR) isolated vas deferens
T5 sequence (P32300 whole entry): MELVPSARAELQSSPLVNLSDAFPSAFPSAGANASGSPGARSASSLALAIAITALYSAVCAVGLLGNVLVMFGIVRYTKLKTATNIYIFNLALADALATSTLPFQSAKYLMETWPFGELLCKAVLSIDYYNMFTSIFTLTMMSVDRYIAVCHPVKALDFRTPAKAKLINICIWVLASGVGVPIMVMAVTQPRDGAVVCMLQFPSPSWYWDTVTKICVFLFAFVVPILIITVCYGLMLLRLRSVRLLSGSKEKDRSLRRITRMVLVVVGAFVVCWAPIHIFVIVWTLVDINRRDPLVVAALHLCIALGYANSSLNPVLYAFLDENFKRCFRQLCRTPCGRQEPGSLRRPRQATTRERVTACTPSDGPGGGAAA

[8] = tested on: μ opioid receptors (GPI); assay: Guinea pig isolated ileum (GPI) assay, opioid agonist;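 also: inhibition of electrically evoked contractions (0.1 Hz, 0.4 msec, supramaximal voltage) in organ baths at 37 °C, contraction height 3 min after each cumulative dose versus the 1 min before dosing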
[9] = target: T6, Substance P receptors (guinea pig NK1) (Cavia porcellus, UniProt P30547); assay: Guinea pig isolated ileum (GPI) assay with substance P stimulation in presence of 1 μM naloxone; details: for Kb: Substance P antagonist, GPI, in the presence of 1 μM naloxone
T6 construct: from tissue; host or cells: guinea pig (Hartley) ileum LMMP, 1 μM naloxone present
T6 sequence (P30547 whole entry): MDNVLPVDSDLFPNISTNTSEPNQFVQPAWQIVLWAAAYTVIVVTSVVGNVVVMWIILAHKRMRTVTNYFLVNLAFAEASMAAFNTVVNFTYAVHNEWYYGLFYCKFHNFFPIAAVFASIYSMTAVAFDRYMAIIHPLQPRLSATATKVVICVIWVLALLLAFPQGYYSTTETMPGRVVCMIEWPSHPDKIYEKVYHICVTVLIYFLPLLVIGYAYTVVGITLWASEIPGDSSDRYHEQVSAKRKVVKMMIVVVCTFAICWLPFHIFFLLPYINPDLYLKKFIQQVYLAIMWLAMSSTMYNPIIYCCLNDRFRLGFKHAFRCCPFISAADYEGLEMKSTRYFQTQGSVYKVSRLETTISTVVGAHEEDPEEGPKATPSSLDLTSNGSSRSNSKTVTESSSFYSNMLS

[10] = Brain distribution, in situ perfusion model; type: in vivo; details: FIG. 20
[11] = Octanol/saline distribution (logD7.4); type: physicochemical; details: 0.05 N HEPES buffer in 0.1 N NaCl
Procedure: HEPES buffer (0.05 M HEPES buffer in 0.1 M NaCl, pH 7.4, 500 μL) was added to 2 mg of compound and mixed with 500 μL of 1-octanol. The sample was shaken at r.t. for 12 h to allow equilibrating. The sample was centrifuged at 6500 rpm in a VanGuard V6500 (GlaxoSmithKline, Research Triangle Park, N.C.) for 15 min. The layers were separated and each layer was centrifuged once again. The compound concentrations of obtained layers were analyzed by HPLC (30-70% of acetonitrile containing 0.1% TFA within 20 min and up to 95% within additional 5 min, 1 mL/min, 230 nm, Vydac 218TP104 C-18 column). The logarithm of 1-octanol/saline distribution (logD7.4) was calculated as the ratio of compound concentration in the 1-octanol and saline phases.
Octanol/saline distribution (logD7.4) (Yamamoto, 2007, J. Med. Chem., submitted). HEPES buffer (0.05 M HEPES buffer in 0.1 M NaCl, pH 7.4, 500 μL) was added to 2 mg of compound and mixed with 500 μL of 1-octanol. The sample was shaken at r.t. for 12 h to allow equilibrating. The sample was centrifuged at 6500 rpm in a VanGuard V6500 (GlaxoSmithKline, Research Triangle Park, N.C.) for 15 min. The layers were separated and each layer was centrifuged once again. The compound concentrations in the obtained layers were analyzed by HPLC (30-70% of acetonitrile containing 0.1% TFA within 20 min and up to 95% within additional 5 min, 1 mL/min, 230 nm, Vydac 218TP104 C-18 column). The logarithm of 1-octanol/saline distribution (logD7.4) was calculated as the ratio of compound concentration in the 1-octanol and saline phases.

[12] = FIG. 47
Procedure: Table printed on a drawing sheet, FIG. 47
The patent's description of the figure: FIG. 47. Concentration of cyclic compounds in rat plasma after incubation at 37° C.

[13] = target: DOR (Homo sapiens, UniProt P41143); details: previous studies; read-out: Affinity (Ki in nM), DOR; cited from earlier work
DOR, sequence (P41143 whole entry): as the sequence (P41143 whole entry) above

[14] = target: MOR (Homo sapiens, UniProt P35372); details: previous studies; read-out: Affinity (Ki in nM), MOR; cited from earlier work
MOR, sequence (P35372 whole entry): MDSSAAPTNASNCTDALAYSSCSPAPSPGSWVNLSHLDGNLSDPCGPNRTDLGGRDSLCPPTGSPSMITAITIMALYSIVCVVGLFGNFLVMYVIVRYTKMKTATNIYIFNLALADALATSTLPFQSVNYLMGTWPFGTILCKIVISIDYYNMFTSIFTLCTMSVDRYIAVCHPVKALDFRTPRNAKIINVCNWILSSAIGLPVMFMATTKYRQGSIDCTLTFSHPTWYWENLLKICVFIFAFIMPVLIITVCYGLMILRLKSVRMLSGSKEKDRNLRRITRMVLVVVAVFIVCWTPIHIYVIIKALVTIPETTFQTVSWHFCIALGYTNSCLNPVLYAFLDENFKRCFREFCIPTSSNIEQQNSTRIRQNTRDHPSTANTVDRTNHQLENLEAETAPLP

[15] = target: rNK1 (Rattus norvegicus, UniProt P14600); details: previous studies; read-out: Affinity (Ki in nM), rNK1; cited from earlier work
rNK1, sequence (P14600 whole entry): as the sequence (P14600 whole entry) above

[16] = membranes from transfected HN9.10 cells
[17] = Table 39, read-out: GPI/LMMP opioid(mu) agonist (IC50; nM)
[18] = electrically stimulated isolated tissue, read-out: GPI (μ), IC50

CC(C)C[C@H](NC(=O)[C@@H]1CCCN1C(=O)[C@H](CC(C)C)NC(=O)[C@H](Cc1ccccc1)NC(=O)CNC(=O)[C@@H](C)NC(=O)[C@@H](N)Cc1ccc(O)cc1)C(=O)N[C@@H](Cc1c[nH]c2ccccc12)C(=O)OCc1cc(C(F)(F)F)cc(C(F)(F)F)c1 [TY004, H-Tyr-D-Ala-Gly-Phe-Leu-Pro-Leu-Trp-O-3,5-Bzl(CF3)2]
Ki [1]: 23.3 nM | δ selectivity over μ in binding assays ([1]; Ki(μ)/Ki(δ)): 4.7 fold | Ki ([1]; Table 27, read-out: Affinity hDOR (Ki; nM)): 5 nM | Ki ([1]; Table 39, read-out: Affinity hDOR (Ki; nM)): 5 nM | Ki(μ)/Ki(δ) ([1]; binding, rMOR vs hDOR): 4.7 | LogIC50, hDOR, [3H]DPDPE [1, 16]: −7.97 ± 0.07 | Ki ([1]; read-out: Ki, hDOR, [3H]DPDPE): 5 nM | Ki [2]: 23.3 nM | LogIC50, rMOR, [3H]DAMGO [2, 16]: −7.30 ± 0.07 | IC50 ([3]; IC50, rNK1, Substance P radioligand): 20.9 nM | IC50 ([3]; LogIC50, rNK1, Substance P radioligand): 20 nM | Ki [4]: 0.016 nM | Ki(μ)/Ki(δ) [5]: 3.4 | LogEC50, hDOR, [35S]GTP-γ-S binding [5]: −8.09 ± 0.18 | δ selectivity in [35S]GTP-γ-S binding assays [5]: 3.4 fold | EC50 ([5]; Table 27, read-out: GTP binding hDOR EC50): 9.6 nM | Emax ([5]; Table 27, read-out: GTP binding hDOR Emax (%)): 42.5% | EC50 ([5]; Table 39, read-out: GTP binding hDOR EC50): 9.6 nM | Emax ([5]; Table 39, read-out: GTP binding hDOR Emax): 42.5% | Emax ([5]; net total bound/basal binding × 100, read-out: Emax, hDOR, [35S]GTP-γ-S binding): 44% | EC50 ([5]; read-out: EC50, hDOR, [35S]GTP-γ-S binding): 9.6 nM | LogEC50, rMOR, [35S]GTP-γ-S binding [6]: −7.48 ± 0.16 | EC50 ([6]; GTP binding rMOR EC50): 39.8 nM | EC50 ([6]; read-out: EC50, rMOR, [35S]GTP-γ-S binding): 33 nM | Emax ([6]; read-out: Emax, rMOR, [35S]GTP-γ-S binding): 46% | Emax ([6]; read-out: GTP binding rMOR Emax): 44.5% | Emax ([6]; read-out: GTP binding rMOR Emax (%)): 44.5% | IC50 [7]: 101 nM | δ selectivity in MVD and GPI assays [7]: 3.4 fold | IC50(MVD)/IC50(GPI) ([7]; Table 4): 3.4 | IC50 ([7]; electrically stimulated isolated tissue, read-out: MVD (δ), IC50): 101 ± 25 nM | IC50 ([8]; Table 28, read-out: GPI/LMMP Opioid(m) Agonist (IC50; nM)): 341 nM | IC50 [8, 17]: 341 nM | IC50 [8, 18]: 341 ± 71 nM | IC50 [9]: 19.4 nM | Kb ([9]; Ke): 19.4 ± 5 nM | GPI/LMMP SP Agonist (IC50; nM) ([9]; Table 39, concentration not given): none | activation at 1 µM ([9]; read-out: Substance P GPI agonist (A50), at 1 μM, contraction relative to initial muscle contraction with KCl): 0% | blood brain barrier penetration [10]: penetrate blood brain barrier

CSCC[C@H](NC(=O)[C@H](Cc1ccccc1)NC(=O)CNC(=O)[C@@H](C)NC(=O)[C@@H](N)Cc1ccc(O)cc1)C(=O)N1CCC[C@H]1C(=O)N[C@@H](CC(C)C)C(=O)N[C@@H](Cc1c[nH]c2ccccc12)C(=O)NCc1ccccc1 [TY025, H-Tyr-D-Ala-Gly-Phe-Met-Pro-Leu-Trp-NH-Bzl]
Ki ([3]; Table 39, read-out: Affinity rNK1 (Ki; nM)): 696 nM | species difference between affinities at rNK1 and hNK1 ([4]; Ki rNK1 vs Ki hNK1): 220 fold | LogEC50, hDOR ([5]; Table 14, logarithm of EC50 (negative), HN9.10 cell): −8.6 ± 0.13 | IC50 ([8]; Table 30, read-out: GPI/LMMP Opioid(m) Agonist (IC50; nM)): 61.1 nM | IC50 [8, 17]: 61.1 nM | IC50 [8, 18]: 61 nM | Kb ([9]; Ke (nM), Table 16): 9.9 ± 2.8 nM | logD7.4 [11]: 3.6 | blood brain barrier penetration [10]: penetrate blood brain barrier

CC(C)C[C@H](NC(=O)[C@@H]1CCCN1C(=O)[C@H]1NC(=O)[C@H](Cc2ccccc2)NC(=O)CNC(=O)[C@H](NC(=O)[C@@H](N)Cc2ccc(O)cc2)C(C)(C)SSC1(C)C)C(=O)N[C@@H](Cc1c[nH]c2ccccc12)C(=O)NCc1cc(C(F)(F)F)cc(C(F)(F)F)c1 [TY046]
Ki [2]: 2330 nM | Ki [4]: 0.0053 nM | Emax ([5]; read-out: GTP binding hDOR Emax): 15% | Emax ([5]; read-out: GTP binding hDOR Emax (%)): 15% | T1/2 [12]: 8.0 h

HTyrDAlaDPhePheDTrpLeuMetNH2 [JSOH9]
Ki [13]: 0.72 nM | Ki [14]: 606 nM | Ki [15]: 2940 nM

HTyrDAlaDTrpPheDTrpLeuLeuNH2 [JSOH11]
Ki [13]: 16.5 nM | Ki [14]: 164 nM | Ki [15]: 7320 nM
